Reference: paper PMC2767256 (Biochemical pharmacology, 2009)

Tests used:
Assay type in all cases: biochemical
[1] = target: SULT1A3 (Homo sapiens, UniProt P0DMM9); assay: inhibition of dopamine sulfation with […]PAPS in BeWo cytosol
[2] = target: SULT1A1 (Homo sapiens, UniProt P50225); assay: inhibition of 4-nitrophenol sulfation with […]PAPS in BeWo cytosol
[3] = target: T1, SULT2A1 (Homo sapiens, UniProt Q06520); assay: sulfation of [3H]DHEA
T1 sequence (Q06520 1-285): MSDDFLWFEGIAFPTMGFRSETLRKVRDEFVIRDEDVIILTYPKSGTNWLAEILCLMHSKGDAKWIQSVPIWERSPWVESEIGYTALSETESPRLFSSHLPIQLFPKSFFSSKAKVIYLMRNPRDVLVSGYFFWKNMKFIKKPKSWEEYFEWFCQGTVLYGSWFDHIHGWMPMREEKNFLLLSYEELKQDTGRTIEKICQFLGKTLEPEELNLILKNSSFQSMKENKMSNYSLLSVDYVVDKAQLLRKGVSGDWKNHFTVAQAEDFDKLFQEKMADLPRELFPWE

Sequence of SULT1A1 (P50225 whole entry): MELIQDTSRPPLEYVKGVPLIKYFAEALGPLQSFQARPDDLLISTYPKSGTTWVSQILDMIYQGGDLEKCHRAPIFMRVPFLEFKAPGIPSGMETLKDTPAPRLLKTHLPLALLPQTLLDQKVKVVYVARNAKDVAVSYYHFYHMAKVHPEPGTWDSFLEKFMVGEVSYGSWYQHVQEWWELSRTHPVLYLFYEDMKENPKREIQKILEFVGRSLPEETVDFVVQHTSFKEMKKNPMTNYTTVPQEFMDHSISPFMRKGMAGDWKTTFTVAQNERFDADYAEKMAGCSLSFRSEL
Sequence of SULT1A3 (P0DMM9 whole entry): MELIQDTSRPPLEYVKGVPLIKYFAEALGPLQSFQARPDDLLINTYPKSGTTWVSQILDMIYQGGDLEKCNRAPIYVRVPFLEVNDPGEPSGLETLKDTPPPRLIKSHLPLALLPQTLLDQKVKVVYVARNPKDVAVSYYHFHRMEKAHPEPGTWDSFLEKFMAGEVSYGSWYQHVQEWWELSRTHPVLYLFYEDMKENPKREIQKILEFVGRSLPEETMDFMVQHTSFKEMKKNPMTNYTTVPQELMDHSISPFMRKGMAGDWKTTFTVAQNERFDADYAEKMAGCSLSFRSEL

Row | SMILES | IC50 [1] | IC50 [2] | sulfation of [3H]DHEA (3 and 10 μM) by purified SULT2A1 [3]
1 | O=[N+]([O-])c1cc(Cl)c(O)c(Cl)c1 [DCNP, 2,6-dichloro-4-nitrophenol] | 830 µM | 0.052 µM | –
2 | C[C@]12CC[C@H](O)CC1=CC[C@@H]1[C@@H]2CC[C@]2(C)C(=O)CC[C@@H]12 [DHEA, dehydroepiandrosterone] | – | – | Under the same assay conditions, purified SULT2A1 readily sulfated DHEA
